Source: patent US20210254056A1, “IDENTIFICATION AND TARGETED MODULATION OF GENE SIGNALING NETWORKS” (CAMP4 THERAPEUTICS CORPORATION, priority 2017, published 2021)

Columns and labels:
hepatocytes [1] = test: RNA-seq of hepatocytes stimulated with the compounds of Table 68; details: hepatocytes, RNA-seq
hepatocytes [2] = test system: hepatocytes
hepatocytes [3] = test: qRT-PCR validation of the Example 12 RNA-seq results;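 note: Compound-treated versus DMSO control, target Ct normalized to GAPDH or β-actin reference (ΔΔCt method), positive values mean higher expression than DMSO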
hepatocytes [4] = test system: hepatocytes; remark: listed apart in the source
[5] = test system: primary human hepatocytes; test: RNA-seq of primary human hepatocytes treated with 39 small molecules (pilot and validation); details: pilot RNA-seq study of Example 2; significance: FPKM≥0.5, log 2(fold change)≥1, q-value ≤0.05

In the case of `CO[C@H]1/C=C/O[C@@]2(C)Oc3c(C)c(O)c4c(O)c(c(/C=N/N5CCN(C)CC5)c(O)c4c3C2=O)NC(=O)/C(C)=C\C=C\[C@H](C)[C@H](O)[C@@H](C)[C@@H](O)[C@@H](C)[C@H](OC(C)=O)[C@@H]1C` [MT-901, Rifampicin], the “Cuffdiff log2fc, AGTR1” value (hepatocytes [1]; log 2 fold change in AGTR1 gene expression, Cuffdiff) was 1.1, the “DESeq log2fc, AGTR1” value (hepatocytes [1]; log 2 fold change in AGTR1 gene expression, DESeq) was 1.18 and the “Cuffdiff log2fc, ALAS1” value (hepatocytes [1]; log 2 fold change in ALAS1 gene expression, Cuffdiff) was 1.45. The “DESeq log2fc, ALAS1” value (hepatocytes [1]; log 2 fold change in ALAS1 gene expression, DESeq) was 1.47, the “Cuffdiff log2fc, CA12” value (hepatocytes [1]; log 2 fold change in CA12 gene expression, Cuffdiff) was 1.53 and the “DESeq log2fc, CA12” value (hepatocytes [1]; log 2 fold change in CA12 gene expression, DESeq) was 1.56. For the same molecule, the “DESeq log2fc, CYP2C19” value (hepatocytes [1]; log 2 fold change in CYP2C19 gene expression, DESeq) was 2.3, the “Cuffdiff log2fc, ENO3” value (hepatocytes [1]; log 2 fold change in ENO3 gene expression, Cuffdiff) was −1.13 and the “DESeq log2fc, ENO3” value (hepatocytes [1]; log 2 fold change in ENO3 gene expression, DESeq) was −0.97. For the same molecule, the “Cuffdiff log2fc, POR” value (hepatocytes [1]; log 2 fold change in POR gene expression, Cuffdiff) was 1.13, the “DESeq log2fc, POR” value (hepatocytes [1]; log 2 fold change in POR gene expression, DESeq) was 1.17 and the “Cuffdiff log2fc, SLC6A6” value (hepatocytes [1]; log 2 fold change in SLC6A6 gene expression, Cuffdiff) was 1.28. For the same molecule, the “DESeq log2fc, SLC6A6” value (hepatocytes [1]; log 2 fold change in SLC6A6 gene expression, DESeq) was 1.39, the “Cuffdiff log2fc, SLC6A20” value (hepatocytes [1]; log 2 fold change in SLC6A20 gene expression, Cuffdiff) was 1.03 and the “DESeq log2fc, SLC6A20” value (hepatocytes [1]; log 2 fold change in SLC6A20 gene expression, DESeq) was 1.06. For the same molecule, the “Cuffdiff log2fc, SLC51B” value (hepatocytes [1]; log 2 fold change in SLC51B gene expression, Cuffdiff) was 1.02, the “DESeq log2fc, SLC51B” value (hepatocytes [1]; log 2 fold change in SLC51B gene expression, DESeq) was 1.19 and the “Cuffdiff log2fc, VLDLR” value (hepatocytes [1]; log 2 fold change in VLDLR gene expression, Cuffdiff) was 1.69. For the same molecule, the “DESeq log2fc, VLDLR” value (hepatocytes [1]; log 2 fold change in VLDLR gene expression, DESeq) was 1.71, the “qRT-PCR log2fc, CYP2C19” value (hepatocytes [2]) was −0.37 and the “qRT-PCR log2fc, AGTR1” value (hepatocytes [3]; log 2 fold change in AGTR1 gene expression) was −0.37. For the same molecule, the “qRT-PCR log2fc, ALAS1” value (hepatocytes [3]; log 2 fold change in ALAS1 gene expression) was 0.3, the “qRT-PCR log2fc, CA12” value (hepatocytes [3]; log 2 fold change in CA12 gene expression) was 0.53 and the “qRT-PCR log2fc, ENO3” value (hepatocytes [3]; log 2 fold change in ENO3 gene expression) was −0.06. The “qRT-PCR log2fc, POR” value (hepatocytes [3]; log 2 fold change in POR gene expression) was 0.16, the “qRT-PCR log2fc, SLC6A6” value (hepatocytes [3]; log 2 fold change in SLC6A6 gene expression) was −0.14 and the “qRT-PCR log2fc, SLC6A20” value (hepatocytes [3]; log 2 fold change in SLC6A20 gene expression) was −0.17. The “qRT-PCR log2fc, SLC51B” value (hepatocytes [3]; log 2 fold change in SLC51B gene expression) was 1.72, the “qRT-PCR log2fc, VLDLR” value (hepatocytes [3]; log 2 fold change in VLDLR gene expression) was 0.63 and the “DESeq log2fc, CYP7A1” value (hepatocytes [4]) was −1.44. The “Number (#) of genes having significantly changed expression” value [5] was 90.
